From paper PMC4736406 (Stem Cells International, 2016)
Counter-ions that a name gives are not always drawn. Values belong to the compound of their own block, whether it stands above or below them.

Legend:
HepG2 cells = experiment: Image based high content analysis (HCA), fixed and live assays, in HepG2
Description: Briefly, the cells were grown in DMEM supplemented with 10% heat inactivated FBS, 1% penicillin-streptomycin (PEST), 1% sodium pyruvate, and 1% nonessential amino acids. Cells were passaged at 1 : 8 or 1 : 6 every 3-4 days when they reach 75–80% confluence. Seeding density was optimized for HCA application to ensure that the cells were in a monolayer (5000 cells per well in 96-well plates) for precise imaging. The cells were grown for 48 h to attach and stabilize. The experiments performed with HepG2 cells were designed to ensure that each assay was performed with cells in a similar growth phase.
Each concentration was assayed in triplicate wells. […] The experimental process is illustrated in Figure 2.
And finally, TOTO-3 was used for assessing PMP.
The cells were imaged using an Olympus ScanR system.
All other fluorescence signals were considered as subobjects.

[1] = test system: hiPSC derived hepatocytes (hiPS-HEP);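 note: hiPS-HEP obtained from ChiPSC4 through definitive endoderm under serum- and feeder-free conditions in 96-well plates, fluorescence imaging, each concentration run in triplicate wells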
Description: (§1) For hepatic differentiation, a serum- and feeder-free procedure recapitulating liver development was applied. First, ChiPSC4 was guided to differentiate into definitive endoderm using the Cellartis DE Diff Kit (Takara Bio Europe AB; Y30030), containing complete media and coating solution for differentiation of hPSC to DE cells in 2D culture. On day 7 of differentiation, the DE cells were enzymatically dissociated and reseeded into fibronectin coated 96-well plates. […] Wells of 96-well plates were coated by adding fibronectin solution 0.15 mL per cm^2 to the wells and let to incubate for >60 min at RT. […] Next, the cell suspension was centrifuged for 5 min at 300 g at RT, the supernatant was removed, and the cell pellet was resuspended in warm Hepatocyte Thawing and Seeding medium (Cellartis Hepatocyte Diff Kit; Takara Bio Europe AB; Y30050). Prior to seeding of cells, excess coating was removed and 150 K DE cells/cm^2 were seeded in the 96-well plates. On days 9 and 11 (counted from the start of ChiPSC4 differentiation), medium was changed using Hepatocyte Progenitor Medium (Cellartis Hepatocyte Diff Kit).
(§2) The cells were treated for 48 h with compounds at varying concentrations (half log dilution from the top concentration). […] The stock solutions were prepared in DMSO or water and were diluted in culture medium to obtain the final concentration. Each concentration was assayed in triplicate wells. Vehicle control wells were included and the final DMSO concentration in the medium never exceeded 0.5% (v/v). Each batch had two plates each for fixed and live assays.
(§3) LipidTOX Green neutral lipids and LipidTox Red phospholipidosis were used for identifying neutral lipid and phospholipid formation within the cells. MMP changes (Δψm) within the cell were measured using MitoTracker orange. Carboxy-H2DCFDA (6-carboxy-2′,7′-dichlorodihydrofluorescein diacetate) an acetylated fluorescent was used for measuring ROS. And finally, TOTO-3 was used for assessing PMP.
(§4) The fluorescence probes were grouped into two sets according to their optical compatibility and requirement of fixed or live material. […] The fluorescent probes for neutral lipids and phospholipids required the cells to be fixed and were assigned to the fixed assay. The probes MitoTracker orange, carboxy-H2DCFDA, and TOTO-3 were assigned to the live assay.
(§5) Following compound incubation, probes were administered to the cultures of the live assay. […] After incubation for 45 min at optimal cell culture conditions, the cells were changed to phenol red (PR) free medium for live cell imaging. For fixed assay, LipidTox Red probe was added with the compounds, and after 48 h the cells were fixed in 4% PFA supplemented with 1X Hoechst stain for 30 min at room temperature. Subsequently, cells were washed with PBS^+/+ and 1X LipidTOX Green stain diluted in PBS^+/+ was incubated with the cells for 30 min at room temperature. The plates were imaged without removing the buffer with probe.
(§6) The cells were imaged using an Olympus ScanR system. Prior to image acquisition, the heating system and CO2 gas flow were started to ensure optimal conditions in the ScanR chamber for live cell analysis. The incubator was set to 37°C with 5% CO2 and relative humidity of 90%. […] 20X long distance objective with NA 0.45 was used to image distinct fluorescence channels. In order to cover the entire well and also to capture maximum cell events sixteen fields per well (4 × 4 tile grid spread equally) were imaged. The channel exposure time for LipidTOX Green, LipidTOX Red, MitoTracker orange, and carboxy-H2DCFHDA were set based on the fluorescence of the negative control wells and were set constant within each plate. Exposure time for Hoechst and TOTO-3 was set in the range of 1–10 ms depending on cellular fluorescence intensity.
(§7) The acquired images were analyzed using ScanR analysis program from Olympus.

[2] = plasma; no reference given; read-out: C max (maximum plasma concentration of the drug); cited from earlier work
[3] = test system: hiPSC derived hepatocytes (hiPS-HEP); experiment: Image based high content analysis (HCA), fixed and live assays, in hiPSC derived hepatocytes;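 note: hiPS-HEP obtained from ChiPSC4 through definitive endoderm under serum- and feeder-free conditions in 96-well plates, fluorescence imaging, each concentration run in triplicate wells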
Description: as §1, §2, §3, §4, §5, §6, §7

[4] = HepG2, fixed assay, 48 h, p<0.05 vs control
[5] = HepG2, fixed, at 100 µM (Amiodarone HCL at […])
[6] = HepG2, live assay, 48 h, p<0.05 vs control
[7] = HepG2, live, at 100 µM (Amiodarone HCL at […])

IC50/EC50 Nucleus Area (HepG2 cells; HepG2, fixed assay, 48 h): 39.5 µM
IC50/EC50 Nucleus Cell count (HepG2 cells; HepG2, fixed assay, 48 h): 7.6 µM
IC50/EC50 Nucleus MI (HepG2 cells; HepG2, fixed assay, 48 h): 140 µM
IC50/EC50 Steatosis Area (HepG2 cells; HepG2, fixed assay, 48 h): 30.6 µM
IC50/EC50 Steatosis Count (HepG2 cells; HepG2, fixed assay, 48 h): 19.5 µM
IC50/EC50 Steatosis MI (HepG2 cells; HepG2, fixed assay, 48 h): 23.6 µM
MEC, steatosis area (S, A) (HepG2 cells; [4]): 125 µM
MEC, steatosis mean intensity (S, MI) (HepG2 cells; [4]): 39.5 µM
IC50/EC50 MMP MI (HepG2 cells; HepG2, live assay, 48 h): 345 µM
IC50/EC50 Nucleus Area (HepG2 cells; HepG2, live assay, 48 h): 29.1 µM
IC50/EC50 Nucleus Cell count (HepG2 cells; HepG2, live assay, 48 h): 7.2 µM
IC50/EC50 Nucleus MI (HepG2 cells; HepG2, live assay, 48 h): 25.0 µM
IC50/EC50 PMP MI (HepG2 cells; HepG2, live assay, 48 h): 147 µM
IC50/EC50 ROS MI (HepG2 cells; HepG2, live assay, 48 h): 4.6 µM
MEC, MMP mean intensity (HepG2 cells; [6]): 12.5 µM
MEC, ROS mean intensity (HepG2 cells; [6]): 12.5 µM
SMILES: CCCCc1oc2ccccc2c1C(=O)c1cc(I)c(OCCN(CC)CC)c(I)c1 [Amiodarone, amiodarone hydrochloride]
Detection of phospholipid accumulation / phospholipidosis (HepG2 cells; HepG2): false negative prediction
Category based on degree of injury (HepG2 cells; HepG2, […] for amiodarone, 100 μM for the others): severely
Severity (sum of individual scores, degree of injury) (HepG2 cells; HepG2, at 100 µM (Amiodarone HCL at […])): 20
IC50/EC50 Phospholipidosis Area (HepG2 cells; HepG2, fixed assay, 48 h): 7.3 µM
IC50/EC50 Phospholipidosis Count (HepG2 cells; HepG2, fixed assay, 48 h): 8.9 µM
IC50/EC50 Phospholipidosis MI (HepG2 cells; HepG2, fixed assay, 48 h): 35.6 µM
Minimal effective concentration (MEC), viability cell count (V, CC) (HepG2 cells; [4]): 4 µM
Degree of injury score, Neutral Lipids Area (HepG2 cells; [5]): 0 (variation lower than 25%)
Degree of injury score, Neutral Lipids C (HepG2 cells; [5]): 2 (variation 150-300%)
Degree of injury score, Neutral Lipids MI (HepG2 cells; [5]): 3 (variation >300%)
Degree of injury score, Nucleus Area (HepG2 cells; [5]): 1 (variation ± 20-40%)
Degree of injury score, Nucleus CC (HepG2 cells; [5]): 3 (variation ± 60-100%)
Degree of injury score, Nucleus MI (HepG2 cells; [5]): 1 (variation ± 20-40%)
Degree of injury score, Phospholipids Area (HepG2 cells; [5]): 1 (variation 25-150%)
Degree of injury score, Phospholipids C (HepG2 cells; [5]): 0 (variation lower than 25%)
Degree of injury score, Phospholipids MI (HepG2 cells; [5]): 0 (variation lower than 25%)
Degree of injury (category) (HepG2 cells; HepG2, isomolar concentration of 100 µM ([…] for amiodarone)): Severe hepatotoxicity (severely toxic (≥15))
MEC, viability cell count (V, CC) (HepG2 cells; [6]): 12.5 µM
Degree of injury score, MMP MI (HepG2 cells; [7]): 1 (variation ± 20-40%)
Degree of injury score, Nucleus Area (HepG2 cells; [7]): 1 (variation ± 20-40%)
Degree of injury score, Nucleus CC (HepG2 cells; [7]): 3 (variation ± 60-100%)
Degree of injury score, Nucleus MI (HepG2 cells; [7]): 2 (variation ± 40-60%)
Degree of injury score, PMP MI (HepG2 cells; [7]): 1 (variation ± 20-40%)
Degree of injury score, ROS MI (HepG2 cells; [7]): 1 (variation ± 20-40%)
Concentration below which no cytotoxic effects were displayed ([1]; human, 48 h): 12.5 µM

IC50/EC50 Nucleus Cell count (HepG2 cells; HepG2, fixed assay, 48 h): 165 µM
IC50/EC50 Nucleus MI (HepG2 cells; HepG2, fixed assay, 48 h): 892 µM
IC50/EC50 Steatosis Area (HepG2 cells; HepG2, fixed assay, 48 h): 398 µM
IC50/EC50 Steatosis Count (HepG2 cells; HepG2, fixed assay, 48 h): 260 µM
IC50/EC50 MMP MI (HepG2 cells; HepG2, live assay, 48 h): 622 µM
IC50/EC50 Nucleus Cell count (HepG2 cells; HepG2, live assay, 48 h): 120.3 µM
IC50/EC50 Nucleus MI (HepG2 cells; HepG2, live assay, 48 h): 153 µM
IC50/EC50 ROS MI (HepG2 cells; HepG2, live assay, 48 h): 115 µM
MEC, MMP mean intensity (HepG2 cells; human, 48 h): 1000 µM
MEC, PMP mean intensity (HepG2 cells; human, 48 h): 1000 µM
MEC, ROS mean intensity (HepG2 cells; human, 48 h): 316 µM
MEC, nuclear changes area (NC, A) (HepG2 cells; human, 48 h): 1000 µM
MEC, nuclear changes mean intensity (NC, MI) (HepG2 cells; human, 48 h): 1000 µM
MEC, steatosis droplet count (S, C) (HepG2 cells; human, 48 h): 316 µM
MEC, steatosis mean intensity (S, MI) (HepG2 cells; human, 48 h): 1000 µM
SRI (steatotic risk index) Lipid (HepG2 cells; human, 48 h): 36
SRI (steatotic risk index) ROS (HepG2 cells; human, 48 h): 36
Phospholipid parameters / accumulation of phospholipids [1]: no changes were detected
ROS levels [1]: unaffected
Concentration at which increase in lipid accumulation / lipid droplets was observed ([1]; human, 48 h): 320 µM
MEC, MMP mean intensity ([1]; human, 48 h): 1000 µM
MEC, PMP mean intensity ([1]; human, 48 h): 31.6 µM
MEC, nuclear changes mean intensity (NC, MI) ([1]; human, 48 h): 100 µM
MEC, steatosis droplet count (S, C) ([1]; human, 48 h): 316 µM
MEC, steatosis mean intensity (S, MI) ([1]; human, 48 h): 1000 µM
SRI (steatotic risk index) Lipid ([1]; human, 48 h): 36
SRI (steatotic risk index) ROS ([1]; human, 48 h): >114
Concentration from which effects on plasma membrane permeability (PMP) start ([3]; hiPSC derived hepatocytes): 32 µM
SMILES: C[C@H]1c2cccc(O)c2C(=O)C2=C(O)[C@]3(O)C(=O)C(C(N)=O)=C(O)[C@@H](N(C)C)[C@@H]3[C@@H](O)[C@@H]21 [Doxycycline, doxycycline]
MEC, viability cell count (V, CC) (HepG2 cells; human, 48 h): 316 µM
Minimal effective concentration (MEC), viability cell count (V, CC) (HepG2 cells; human, 48 h): 100 µM
TR (toxicity risk) (HepG2 cells; human, 48 h): 11.4
Effect on mitochondrial membrane [1]: concentration dependent depolarization of the mitochondrial membrane
MEC, viability cell count (V, CC) ([1]; human, 48 h): 1000 µM
Minimal effective concentration (MEC), viability cell count (V, CC) ([1]; human, 48 h): 100 µM
TR (toxicity risk) ([1]; human, 48 h): 3.6
Cmax [2]: 8.8 µM
IC50/EC50 Nucleus Area ([3]; hiPS-HEP, fixed assay, 48 h): 96.1 µM
IC50/EC50 Nucleus Cell count ([3]; hiPS-HEP, fixed assay, 48 h): 107 µM
IC50/EC50 Nucleus MI ([3]; hiPS-HEP, fixed assay, 48 h): 47.2 µM
IC50/EC50 Steatosis Count ([3]; hiPS-HEP, fixed assay, 48 h): 115 µM
IC50/EC50 Steatosis MI ([3]; hiPS-HEP, fixed assay, 48 h): 441 µM
IC50/EC50 MMP MI ([3]; hiPS-HEP, live assay, 48 h): 644 µM
IC50/EC50 Nucleus Area ([3]; hiPS-HEP, live assay, 48 h): 204.3 µM
IC50/EC50 Nucleus Cell count ([3]; hiPS-HEP, live assay, 48 h): 69.4 µM
IC50/EC50 Nucleus MI ([3]; hiPS-HEP, live assay, 48 h): 120 µM
IC50/EC50 PMP MI ([3]; hiPS-HEP, live assay, 48 h): 26.9 µM
IC50/EC50 ROS MI ([3]; hiPS-HEP, live assay, 48 h): 10.5 µM
Cell count reduction ([3]; hiPSC derived hepatocytes, at 100 μM): 50%
